In experiment [1] the target is T1, TYK2 (JH2domain-pseudokinase) (Homo sapiens, UniProt P29597).
T1 construct: TYK2 (JH2domain-pseudokinase)-tagged T7 phage strains were prepared in an E. coli host derived from the BL21 strain; made in house; host or cells: E. coli BL21-derived host (T7 phage) or HEK-293 cells
In words: TYK2 JH2 domain binding assay (KINOMEscan). Summed up:
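Competition binding of DNA-tagged TYK2 JH2 pseudokinase domain against immobilised affinity ligand, 1 h at room temperature in SeaBlock/PBS/Tween/DTT buffer with about 1% DMSO. Bound kinase eluted and quantified by qPCR. Kd taken from 11-point 3-fold series, usually 30,000 nM top, fitted by Levenberg-Marquardt nonlinear least squares.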

In experiment [2] the test system is STAT1/3 through TYK2/JAK1. In words: IFNa induced STAT phosphorylation in HEK293 cells (SIE-bla reporter gene). The following applies: Homo sapiens, HEK293; HEK293T-sie-bla cells, IFNa at EC80, 4 hours; read-out: Inhibition of IFNa induced STAT phosphorylation HEK293 cells IC50. Type of experiment: cell-based. In short, it runs like this:
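HEK293T cells carrying a SIE-driven β-lactamase reporter were co-treated with compound (1/5 serial dilution, 10 points, 0.1% DMSO final) and IFNa at EC80 for 4 h at 37°C. β-Lactamase substrate was added to stop the stimulation, followed by overnight dark incubation and FRET read. IC50 from a four-parameter logistic fit.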

A value given as a limit tells only on which side of the number the result lay.

T1 sequence (P29597 589-875 limits assumed): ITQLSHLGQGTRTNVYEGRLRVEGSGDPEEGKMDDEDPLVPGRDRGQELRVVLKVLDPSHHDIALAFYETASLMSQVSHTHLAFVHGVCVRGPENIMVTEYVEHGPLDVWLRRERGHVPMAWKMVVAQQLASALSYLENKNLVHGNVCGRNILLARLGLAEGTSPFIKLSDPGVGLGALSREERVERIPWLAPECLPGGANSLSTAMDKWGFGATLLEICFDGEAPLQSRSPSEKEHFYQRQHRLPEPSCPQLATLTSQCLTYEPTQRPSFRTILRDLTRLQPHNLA

The Kd is the constant that tells how readily two partners part at equilibrium. Low readings indicate tighter binding, high ones weaker binding. As usually defined, the IC50 is the concentration that inhibits the measured activity by half. In experiment [1], `Cc1cc(Nc2cc(Nc3ncc(-c4ccnn4C)cc3N(C)S(C)(=O)=O)ncn2)nc(C)n1` [Example 127, N-[2-[[6-[(2,6-dimethylpyrimidin-4-yl)amino]pyrimidin-4-yl]amino]-5-(2-methylpyrazol-3-yl)-3-pyridyl]-N-methyl-methanesulfonamide] returned a Kd of 0.2 to 1 nM. Also, the half-inhibitory concentration (IC50) in experiment [2] fell in the range of 10 to 100 nM.

Compound `Cc1cc(Nc2cc(Nc3ncc(-c4nccn4C)cc3N(C)S(C)(=O)=O)ncn2)nc(C)n1` [Example 128, N-[2-[[6-[(2,6-dimethylpyrimidin-4-yl)amino]pyrimidin-4-yl]amino]-5-(1-methylimidazol-2-yl)-3-pyridyl]-N-methyl-methanesulfonamide] gave a Kd in experiment [1] of less than 0.2 nM. The IC50 in experiment [2] was in the range of 100 to 1000 nM.

In turn, `Cc1cc(Nc2cc(Nc3ncc(-c4cc(C)nn4C)cc3N(C)S(C)(=O)=O)ncn2)nc(C)n1` [Example 129, N-[5-(2,5-dimethylpyrazol-3-yl)-2-[[6-[(2,6-dimethylpyrimidin-4-yl)amino]pyrimidin-4-yl]amino]-3-pyridyl]-N-methyl-methanesulfonamide] gave a Kd in experiment [1] of less than 0.2 nM. Also, the IC50 in experiment [2] lay in the range of 10 to 100 nM.

In the case of `Cc1cc(Nc2cc(Nc3ncc(-c4ncnn4C)cc3N(C)S(C)(=O)=O)ncn2)nc(C)n1` [Example 130, N-[2-[[6-[(2,6-dimethylpyrimidin-4-yl)amino]pyrimidin-4-yl]amino]-5-(2-methyl-1,2,4-triazol-3-yl)-3-pyridyl]-N-methyl-methanesulfonamide], the Kd in experiment [1] is 0.2 to 1 nM. Also, in experiment [2], the IC50 lay within 100 to 1000 nM.

In experiment [1], `Cc1cc(Nc2cc(Nc3ncc(-c4ccn(C)n4)cc3N(C)S(C)(=O)=O)ncn2)nc(C)n1` [Example 131, N-[2-[[6-[(2,6-dimethylpyrimidin-4-yl)amino]pyrimidin-4-yl]amino]-5-(1-methylpyrazol-3-yl)-3-pyridyl]-N-methyl-methanesulfonamide] displayed a Kd of less than 0.2 nM. Also, the IC50 in experiment [2] was 10 to 100 nM.

`COc1c(C)ccnc1Nc1cc(Nc2cc(C)nc(C)n2)ncn1` [Example 132, N4-(2,6-dimethylpyrimidin-4-yl)-N6-(3-methoxy-4-methyl-2-pyridyl)pyrimidine-4,6-diamine] had a Kd in experiment [1] of 0.2 to 1 nM. Moreover, the IC50 in experiment [2] is 100 to 1000 nM.

Consider `Cc1cc(Nc2cc(Nc3ncc(-c4nnc(C)n4C)cc3N(C)S(C)(=O)=O)ncn2)nc(C)n1` [Example 134, N-[2-[[6-[(2,6-dimethylpyrimidin-4-yl)amino]pyrimidin-4-yl]amino]-5-(4,5-dimethyl-1,2,4-triazol-3-yl)-3-pyridyl]-N-methyl-methanesulfonamide], for which, in experiment [1], the Kd fell in the range of 0.2 to 1 nM. For the same compound, in experiment [2], the IC50 was more than 1000 nM.

As to `[2H]C([2H])([2H])N(c1cc(-c2nnc(C)n2C)cnc1Nc1cc(Nc2cc(C)nc(C)n2)ncn1)S(C)(=O)=O` [Example 136, N-[2-[[6-[(2,6-dimethylpyrimidin-4-yl)amino]pyrimidin-4-yl]amino]-5-(4,5-dimethyl-1,2,4-triazol-3-yl)-3-pyridyl]-N-(trideuteriomethyl)methanesulfonamide], in experiment [1], the Kd is less than 0.2 nM. For the same compound, in experiment [2], the IC50 is less than 10 nM.

In the case of `Cc1cc(Nc2cc(Nc3ncc(-c4ncc(C)n4C)cc3N(C)S(C)(=O)=O)ncn2)nc(C)n1` [Example 140, N-[5-(1,5-dimethylimidazol-2-yl)-2-[[6-[(2,6-dimethylpyrimidin-4-yl)amino]pyrimidin-4-yl]amino]-3-pyridyl]-N-methyl-methanesulfonamide], in experiment [1], the Kd was less than 0.2 nM. In addition, in experiment [2], the IC50 is 10 to 100 nM.

For the compound `COc1c(Nc2cc(Nc3cc(C)nc(C)n3)ncn2)ncc(-c2cnn(C)c2C)c1C` [Example 141, N6-[5-(1,5-dimethylpyrazol-4-yl)-3-methoxy-4-methyl-2-pyridyl]-N4-(2,6-dimethylpyrimidin-4-yl)pyrimidine-4,6-diamine], the Kd in experiment [1] was less than 0.2 nM. Also, the IC50 in experiment [2] fell in the range of 10 to 100 nM.

As for `Cc1cc(Nc2cc(Nc3ncc(-c4cnc(C)n4C)cc3N(C)S(C)(=O)=O)ncn2)nc(C)n1` [Example 142, N-[5-(2,3-dimethylimidazol-4-yl)-2-[[6-[(2,6-dimethylpyrimidin-4-yl)amino]pyrimidin-4-yl]amino]-3-pyridyl]-N-methyl-methanesulfonamide], the Kd in experiment [1] is less than 0.2 nM. The IC50 in experiment [2] was 10 to 100 nM.

`COc1c(-c2noc(C(F)(F)F)n2)ccnc1Nc1cc(Nc2cc(C)nc(C)n2)ncn1` [Example 143, N6-(2,6-dimethylpyrimidin-4-yl)-N4-[3-methoxy-4-[5-(trifluoromethyl)-1,2,4-oxadiazol-3-yl]-2-pyridyl]pyrimidine-4,6-diamine] yielded a Kd in experiment [1] of 1 to 10 nM. For the same compound, the IC50 in experiment [2] is more than 1000 nM.

In experiment [1], `Cc1cc(Nc2cc(Nc3ncc(-c4cnn(C)c4C)cc3NS(C)(=O)=O)ncn2)nc(C)n1` [Example 144, N-[5-(1,5-dimethylpyrazol-4-yl)-2-[[6-[(2,6-dimethylpyrimidin-4-yl)amino]pyrimidin-4-yl]amino]-3-pyridyl]methanesulfonamide] came in with a Kd of less than 0.2 nM. Moreover, the IC50 in experiment [2] was in the range of 10 to 100 nM.

Regarding `Cc1cc(Nc2cc(Nc3ncccc3P(C)(C)=O)ncn2)nc(C)n1` [Example 145, N6-(3-dimethylphosphoryl-2-pyridyl)-N4-(2,6-dimethylpyrimidin-4-yl)pyrimidine-4,6-diamine], in experiment [1], the Kd is less than 0.2 nM. Besides, in experiment [2], the concentration for half-maximal inhibition (IC50) lay in the range of 10 to 100 nM.

Consider `COc1cc(-c2cnn(C)c2C)cnc1Nc1cc(Nc2cc(C)nc(C)n2)ncn1` [Example 146, N6-[5-(1,5-dimethylpyrazol-4-yl)-3-methoxy-2-pyridyl]-N4-(2,6-dimethylpyrimidin-4-yl)pyrimidine-4,6-diamine], for which the Kd in experiment [1] was less than 0.2 nM. In addition, the half-maximal inhibitory concentration (IC50) in experiment [2] is less than 10 nM.

In experiment [1], `Cc1cc(Nc2cc(Nc3ncc(-c4cn(C)cn4)cc3N(C)S(C)(=O)=O)ncn2)nc(C)n1` [Example 147, N-[2-[[6-[(2,6-dimethylpyrimidin-4-yl)amino]pyrimidin-4-yl]amino]-5-(1-methylimidazol-4-yl)-3-pyridyl]-N-methyl-methanesulfonamide] gave a Kd of less than 0.2 nM. For the same compound, the IC50 in experiment [2] was 10 to 100 nM.

As for `COc1c(-c2nc(C)n(C)n2)ccnc1Nc1cc(Nc2cc(C)nc(C)n2)ncn1` [Example 148, N4-(2,6-dimethylpyrimidin-4-yl)-N6-[4-(1,5-dimethyl-1,2,4-triazol-3-yl)-3-methoxy-2-pyridyl]pyrimidine-4,6-diamine], the Kd in experiment [1] was less than 0.2 nM. In addition, the IC50 in experiment [2] fell in the range of 10 to 100 nM.

Consider `Cc1cc(Nc2cc(Nc3ncc(-c4cnn(C)c4C)cc3P(C)(C)=O)ncn2)nc(C)n1` [Example 149, N6-[3-dimethylphosphoryl-5-(1,5-dimethylpyrazol-4-yl)-2-pyridyl]-N4-(2,6-dimethylpyrimidin-4-yl)pyrimidine-4,6-diamine], for which, in experiment [1], the Kd is less than 0.2 nM. Also, the half-maximal inhibitory concentration (IC50) in experiment [2] was less than 10 nM.

As for `Cc1cc(Nc2cc(Nc3nccc(C)c3S(C)(=O)=O)ncn2)nc(C)n1` [Example 150, N4-(2,6-dimethylpyrimidin-4-yl)-N6-(4-methyl-3-methylsulfonyl-2-pyridyl)pyrimidine-4,6-diamine], the equilibrium dissociation constant (Kd) in experiment [1] was less than 0.2 nM. The IC50 in experiment [2] was less than 10 nM.

Turning to `Cc1c(-c2cnc(Nc3cc(NC(=O)C4CC4)ncn3)c(S(C)(=O)=O)c2)cnn1C` [Example 151, N-[6-[[5-(1,5-dimethylpyrazol-4-yl)-3-methylsulfonyl-2-pyridyl]amino]pyrimidin-4-yl]cyclopropanecarboxamide], the Kd in experiment [1] was less than 0.2 nM. Moreover, the IC50 in experiment [2] is less than 10 nM.

`Cc1c(-c2cnc(Nc3cc(Nc4ccc(F)cn4)ncn3)c(S(C)(=O)=O)c2)cnn1C` [Example 152, N4-[5-(1,5-dimethylpyrazol-4-yl)-3-methylsulfonyl-2-pyridyl]-N6-(5-fluoro-2-pyridyl)pyrimidine-4,6-diamine]: in experiment [1], the dissociation constant Kd is less than 0.2 nM. In addition, in experiment [2], the IC50 is less than 10 nM.

On to `Cc1cc(Nc2cc(Nc3ncc(-c4cnn(C)c4C)c(C)c3S(C)(=O)=O)ncn2)nc(C)n1` [Example 153, N6-[5-(1,5-dimethylpyrazol-4-yl)-4-methyl-3-methylsulfonyl-2-pyridyl]-N4-(2,6-dimethylpyrimidin-4-yl)pyrimidine-4,6-diamine], for which the Kd in experiment [1] was less than 0.2 nM. The IC50 in experiment [2] is less than 10 nM.

In experiment [1], `Cc1cc(Nc2cc(Nc3ncc(-c4nc(C)n(C)n4)cc3N(C)S(C)(=O)=O)ncn2)ncn1` [Example 154, N-[5-(1,5-dimethyl-1,2,4-triazol-3-yl)-2-[[6-[(6-methylpyrimidin-4-yl)amino]pyrimidin-4-yl]amino]-3-pyridyl]-N-methyl-methanesulfonamide] came in with a Kd of less than 0.2 nM. For the same compound, the IC50 in experiment [2] lay in the range of 10 to 100 nM.

In experiment [1], `Cc1cc(Nc2cc(Nc3ncc(-c4nc(C)nn4C)cc3N(C)S(C)(=O)=O)ncn2)ncn1` [Example 155, N-[5-(2,5-dimethyl-1,2,4-triazol-3-yl)-2-[[6-[(6-methylpyrimidin-4-yl)amino]pyrimidin-4-yl]amino]-3-pyridyl]-N-methyl-methanesulfonamide] registered a dissociation constant Kd of 0.2 to 1 nM. Further, the IC50 in experiment [2] lay in the range of 100 to 1000 nM.

In experiment [1], `Cc1cc(Nc2cc(Nc3nc(C)ccc3S(C)(=O)=O)ncn2)ncn1` [Example 156, N6-(6-methyl-3-methylsulfonyl-2-pyridyl)-N4-(6-methylpyrimidin-4-yl)pyrimidine-4,6-diamine] registered a Kd of 1 to 10 nM. The IC50 in experiment [2] was more than 1000 nM.

`Cc1cc(Nc2cc(Nc3ncc(C4CCOCC4)cc3N(C)S(C)(=O)=O)ncn2)nc(C)n1` [Example 157, N-[2-[[6-[(2,6-dimethylpyrimidin-4-yl)amino]pyrimidin-4-yl]amino]-5-(oxan-4-yl)pyridin-3-yl]-N-methylmethanesulfonamide] came in with a dissociation constant Kd in experiment [1] of 0.2 to 1 nM. Besides, the half-inhibitory concentration (IC50) in experiment [2] lay within 10 to 100 nM.

The values are drawn from patent EP4206196A1, “PYRIMIDINE SUBSTITUTED DERIVATIVES AS TYK2 INHIBITORS” (Almirall S.A., priority 2021, dated 2023).
